# According to patent US20260174786A1, “A NITROGEN-CONTAINING SPIROCYCLIC COMPOUND, PHARMACEUTICAL COMPOSITION AND USE THEREOF” (Prime Gene Therapeutics Co., Ltd., priority 2022, published 2026):
# What was measured:
# hTRPV3 = molecular target: T1, hTRPV3 (Homo sapiens, UniProt Q8NET8); assay: Whole cell patch clamp inhibition rate test on HEK-293 cells instantaneously expressing TRPV3; type: cell-based; conditions: HEK293
# T1 construct: expressed in transfected cells; host or cells: HEK-293
# T1 sequence (Q8NET8 1-790): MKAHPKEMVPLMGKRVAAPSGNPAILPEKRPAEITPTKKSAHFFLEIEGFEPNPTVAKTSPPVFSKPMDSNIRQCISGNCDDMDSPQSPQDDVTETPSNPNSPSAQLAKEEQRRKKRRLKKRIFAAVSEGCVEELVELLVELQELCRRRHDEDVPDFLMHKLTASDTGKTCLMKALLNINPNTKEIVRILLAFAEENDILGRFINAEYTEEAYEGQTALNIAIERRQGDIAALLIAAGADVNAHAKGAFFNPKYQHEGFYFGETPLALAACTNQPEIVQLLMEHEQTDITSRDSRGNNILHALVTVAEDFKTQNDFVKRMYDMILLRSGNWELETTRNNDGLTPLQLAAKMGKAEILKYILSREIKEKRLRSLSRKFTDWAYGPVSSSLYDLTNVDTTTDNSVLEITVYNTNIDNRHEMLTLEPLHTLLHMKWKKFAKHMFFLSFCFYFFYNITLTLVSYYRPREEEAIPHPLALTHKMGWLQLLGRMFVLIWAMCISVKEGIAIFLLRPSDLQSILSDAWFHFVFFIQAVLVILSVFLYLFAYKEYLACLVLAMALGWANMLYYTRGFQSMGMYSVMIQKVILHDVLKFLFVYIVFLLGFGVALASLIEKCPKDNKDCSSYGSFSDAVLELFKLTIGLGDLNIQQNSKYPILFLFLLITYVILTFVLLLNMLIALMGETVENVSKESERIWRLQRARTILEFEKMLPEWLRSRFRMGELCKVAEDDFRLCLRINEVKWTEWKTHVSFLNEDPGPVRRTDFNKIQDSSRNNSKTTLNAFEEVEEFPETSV
# Summary of the method: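 HEK-293 cells transiently transfected with TRPV3, recorded next-but-one day by whole-cell patch clamp at room temperature: holding −80 mV, ramp −100 to 100 mV over 100 ms every 5 s, peak current monitored. Ascending concentrations perfused, 5 min each; each cell its own control, at least two cells per concentration.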
# [1] = Parallel artificial membrane permeability test (Lipid PAMPA); type: in vitro ADME; conditions: for recovery at 16 h, 10 μM: pH 7.4, test concentration 10 μM, read-out: rate of recovery %; for −LOG Pe / Papp at 16 h, 10 μM: test concentration 10 μM; for Papp at 16 h, 10 μM: pH 7.4, 16 hours, read-out: Effective penetration rate Pe
# Experimental: 1. Preparing the test compound in 10 mM DMSO and diluting 1000 fold to 10 μM with PBS. 2. Ultrasonic treating lecithin in dodecane at a rate of 18 mg/ml. 3. Adding 300 μL/well of 10 μM test compound solution into the donor chamber (bottom) in triplicate. 4. Adding 5 μL/well lecithin/dodecane to the receptor chamber (top), and then adding 300 μL/well PBS (pH=7.4) to the receptor chamber within 10 minutes. 5. Transferring 50 μL of 10 μM test compound onto a sample plate containing 200 μL of cold methanol, with IS * being C0. 6. Inserting the receptor chamber into the donor chamber and incubating at 25° C. for 16 hours. 7. After 16 hours of incubation, transferring 50 μL from the receptor and donor compartments to a sample plate containing 200 μL of cold methanol and IS *. 8. Centrifuging the sample plate at 4° C. and 3220 g for 40 minutes. 9. Transferring 100 μL of supernatant to an analysis plate containing an appropriate volume of H2O for LC-MS/MS analysis. 10. Data analysis.
# [2] = hTRPV3, single concentration 0.3 μM
inhibition at 0.3 µM (hTRPV3; [2]),"recovery at 16 h, 10 μM [1]",−LOG Pe [1],"Papp at 16 h, 10 μM [1]","inhibition at 0.3 µM (hTRPV3; hTRPV3, 0.3 μM)",Compound
70 to 100%,16.9%,4.85,14.1 ×10⁻⁶ cm/s,,"O=C(c1ccc(F)cn1)N1CCC2(CC(O)c3cc(-c4ccccc4C4CC4)ccc32)C1 (stereo not drawn) [Example 15, (5-(2-cyclopropylphenyl)-3-hydroxy-2,3-dihydrospiro[indene-1,3′-pyrrolidine]-1′-yl)(5-fluoropyridin-2-yl) ketone]"
70 to 100%,18.8%,4.79,16.3 ×10⁻⁶ cm/s,89.6%,"O=C(c1ccc(F)cn1)N1CC[C@@]2(C[C@@H](O)c3cc(-c4ccccc4C4CC4)ccc32)C1 [Example 21, ((1S,3R)-5-(2-cyclopropylphenyl)-3-hydroxy-2,3-dihydrospiro[indene-1,3′-pyrrolidine]-1′-yl)(5-fluoropyridin-2-yl)ketone]"
